According to US10611797B2, “Peptide having anticancer activity, and pharmaceutical composition and dietary supplement composition for preventing and treating cancer, both of which contain same as active ingredient” (IUCF-HYU (INDUSTRY-UNIVERSITY COOPERATION FOUNDATION …, priority 2015, dated 2020):
Where two headings read alike, the source gives them in different places.

How the values were obtained:
MCF10A cell line = test: Electron microscopy of cell morphology, MCF10A; conditions: 2 μM, 24 and 48 h
Description: 1.5×10^6 cells of MDA-MB-231 cell line and 5×10^5 cells of MCF10A cell line were inoculated into 100 mm dishes. […] After culture for 24 and 48 h, cells were collected. The culture solution was centrifuged and surface adherent cells were collected by trypsin treatment. The collected cells were washed once with physiological saline. The cell sediment was directly treated twice with 2.5% aqueous glutaraldehyde solution (each for 10 min). Samples for electron microscopy were prepared and imaged in accordance with general methods.

[1] = system: human mesenchymal stem cells (hMSC); test: MTT cell viability, human mesenchymal stem cells; conditions: increasing concentrations
[2] = system: normal cell lines (MCF10A, BEAS2B, hMSCs, mouse primary T cells); test: Microscopic observation of growth inhibition and apoptosis, normal cell lines; conditions: 2 μM, 48 h
Description: (§1) Liver cancer cell lines (HepG2, Hep3B), a human embryonic kidney cell line (293T), breast cancer cell lines (MCF-7, MDA-MB-231), blood tumor cell lines (K562, HEL, HL60), glioblastoma cell lines (U251, U373MG, U87MG), a mammary epithelial cell line (MCF10A), a lung epithelial cell line (BEAS2B), human mesenchymal stem cells (hMSCs), and mouse primary T cells (resting and activated T cells) were inoculated into 96-well plates at a density of 3,000 cells/well, supplemented with 50 μl of culture solution, and cultured at 37° C. and 5% CO2 for 1 h. […] After completion of the culture, cells were observed under an inverted phase contrast microscope and their morphological changes were imaged.

[3] = system: BEAS2B and MCF10A normal epithelial cell lines; test: MTT cell viability / IC50, normal epithelial control cell lines
Description: (§2) Liver cancer cell lines (HepG2, Hep3B) were inoculated into 96-well plates at a density of 3000 cells/well, and then 50 μl of culture solution was added thereto. Cells were cultured at 37° C. and 5% CO2 for 1 h. […] Cells were cultured at 37° C. and 5% CO2 for 24, 48, 72, and 96 h. After completion of the culture, the remaining culture solution was removed from the well plates, the cultures were diluted with MTT solution (3-(4,5-dimethylthiazol-2-yl)-2,5-diphenyltetrazole bromide) to a final density of 500 μg/ml, and cells were cultured at 37° C. and 5% CO2 for 3 h. The remaining MTT solution was removed and 150 μl of dimethyl sulfoxide (DMSO) was added. The reaction was carried out at room temperature for 20 min. After completion of the reaction, absorbance was measured using a microplate reader.

[4] = system: human embryonic stem cells (hESCs, H9); test: MTT cell viability, human embryonic stem cells co-cultured with MEFs; conditions: increasing concentrations; co-culture with MEFs
Description: MEF cells labeled with rhodamine were often used to distinguish them from hESC-derived cells.

[5] = system: cancer cell lines (HepG2, Hep3B, 293T, MCF-7, MDA-MB-231, K562, HEL, HL60, U251, U373MG, U87MG); test: Microscopic observation of growth inhibition and apoptosis, cancer cell lines; format: cell-based, human; conditions: 2 μM, 48 h
Description: as §1

MDA-MB-231 cell line = test: MTT assay of FITC-conjugated peptides in MDA-MB-231; format: cell-based, human; conditions: 0, 0.5, 1, 2, 3, 10 μM, 96 h
CP2c [6] = target: T1, CP2c (Mus musculus, UniProt Q9ERA0); test: DNA immunoprecipitation (DIP) assay of CP2c-DNA binding; conditions: 0.2, 0.5, and 1 μg peptide; MEL nuclear extract; α-globin promoter probe
T1 construct: 5 μg of the nuclear extract and an [α-32p] dCTP-labeled DNA probe; endogenous in cells; host or cells: MEL (murine erythroid leukemia) cells, HMBA-differentiated, nuclear extract
T1 sequence (Q9ERA0 1-502): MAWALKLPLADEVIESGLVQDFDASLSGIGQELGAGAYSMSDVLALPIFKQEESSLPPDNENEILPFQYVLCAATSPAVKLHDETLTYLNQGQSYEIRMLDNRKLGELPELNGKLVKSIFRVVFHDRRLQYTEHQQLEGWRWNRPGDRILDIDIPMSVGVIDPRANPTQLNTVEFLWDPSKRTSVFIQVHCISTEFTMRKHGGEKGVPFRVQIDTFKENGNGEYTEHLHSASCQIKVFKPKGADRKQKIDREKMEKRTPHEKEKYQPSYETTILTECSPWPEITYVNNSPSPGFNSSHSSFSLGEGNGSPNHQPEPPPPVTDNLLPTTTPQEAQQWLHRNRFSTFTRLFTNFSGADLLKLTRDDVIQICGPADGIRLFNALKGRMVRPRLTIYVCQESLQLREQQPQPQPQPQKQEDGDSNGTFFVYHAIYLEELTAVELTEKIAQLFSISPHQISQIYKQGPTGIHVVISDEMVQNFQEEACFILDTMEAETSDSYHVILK
Description: To analyze whether the five peptides identified in Example 1.1 bind to CP2c in cells to affect the ability of CP2c to bind to DNA, DNA immunoprecipitation (DIP) assay was performed as disclosed in another preceding research conducted by the present inventors (Kim et al., A DNA immunoprecipitation assay used in quantitative detection of in vitro DNA-protein complex binding, Analytical Biochemistry. 2013; 441: 147-151).
In summary, the differentiation of a murine erythroid leukemia (MEL) cell line was induced by treatment with 5 mM hexamethylene bisacetamide (HMBA) and, on day 2 after differentiation, a cellular nuclear extract was separated. […]
Subsequently, 5 μg of the nuclear extract and an [α-32p] dCTP-labeled DNA probe (a sequence corresponding to the common CP2c binding site present in mouse α-globin promoter and between −156 and −124 in the start codon of the α-globin gene, see the paper of Kim et al. for details of the sequence) were allowed to react with a binding buffer (4% glycerol, 10 mM Tris-HCl, 1 mM DTT, 1 mM EDTA, and 0.1% NP-40) for 15 min, and gradually increasing amounts (0.2, 0.5, and 1 μg) of the identified CP2c binding peptides (Peptide 5, Peptide 8, Peptide 13, Peptide 21, and Peptide 31) were added thereto. […] The CP2c protein was removed from the DNA probe and the remaining amount of the DNA probe was measured using a scintillation counter. […]

CP2c [7] = target: T1, CP2c; conditions: Kim et al., Analytical Biochemistry 2013; cited from earlier work
CP2c [8] = test: Direct ELISA of GST-fusion mutant CP2c proteins binding to peptide; conditions: 19 Ala mutants of CP2c 306-396 region; detected with biotin-tagged Peptide 5-2CB
Text: To support this assumption, a CP2c protein region with which Peptide 5-2C interacts and amino acids in the region directly binding to Peptide 5-2C need to be identified. Thus, an attempt was made to obtain mutant CP2c proteins in which polar amino acids present in the CP2c region binding with Peptide 5 shown in FIG. 1 were substituted with Ala and analyze the binding of the mutant CP2c proteins with Peptide 5-2C by enzyme-linked immunosorbent assay (ELISA). To facilitate this analysis, Peptide 5-2CB was synthesized in which biotin tag is bonded to the C-terminal Pro residue of Peptide 5-2C. To confirm whether Peptide 5-2CB induces cancer cell-specific growth interruption and apoptosis, like Peptide 5-2C, MTT assay was conducted on two different batches of Peptide 5-2CB in MDA-MB-231 cell line and MCF7 cell line by the same method as in Example 5.1. IC50 values were also calculated from the results of MTT assay. To obtain 19 mutant CP2c proteins in which polar amino acids present in the CP2c region binding with Peptide 5-2C were substituted with Ala, oligonucleotides having sequences encoding the corresponding mutant amino acids were synthesized and site-directed mutagenesis was carried out. The base sequences encoding the mutant CP2c genes were cloned into the pGEX4 vector and mutant GST-fusion CP2c proteins were purified using beads bound with antibody against GST-tag. […]

[9] = system: glioblastoma cell lines (U343, U87MG); test: MTT cell viability with Peptide 5-2D, glioblastoma cell lines; format: cell-based, human; conditions: increasing concentrations
Description: as §2

[10] = system: human blood cancer cell lines (U937, Jurkat, HL60, HEL); test: MTT cell viability with Peptide 5-2D, human blood cancer cell lines; format: cell-based; conditions: increasing concentrations
Description: as §2

[11] = system: BEAS2B and MCF10A normal epithelial cell lines
Description: as §2

[12] = system: 293T and HepG2 cell lines; test: MTT cell viability with Peptide 5-2D, 293T and HepG2; format: cell-based, human; conditions: increasing concentrations
Description: as §2

[13] = system: breast cancer cell lines (MCF7, MDA-MB-231); test: MTT cell viability, breast cancer cell lines; format: cell-based, human; conditions: increasing concentrations
Description: as §2

[14] = system: colon cancer cell lines (HCT116, HT29); test: MTT cell viability with Peptide 5-2D, colon cancer cell lines; format: cell-based, human; conditions: increasing concentrations
Description: as §2

## CCOc1ccccc1C1CC(=O)Nc2cc3c(cc21)OCO3 (stereo not shown) [FQI1, Factor Quinolinone Inhibitor 1]
MCF10A cell line
  intracellular structural abnormalities in MCF10A (electron microscopy): considerable nuclear disruption was observed at 48 h
[1]
  cytotoxicity (MTT) in hMSC: concentration-dependent cytotoxicity
[2]
  effect on normal cell lines (microscopy): inhibited the growth of the normal cell lines
[3]; 48 h, MTT
  growth inhibition and apoptosis induction of normal control cell lines (IC50 calculation): inhibited cell growth and induced apoptosis
[3]; increasing concentrations up to 10 μM
  cytotoxicity (MTT) in MCF10A and BEAS2B: concentration-dependent cytotoxicity
[4]
  cytotoxicity (MTT) in hESCs: concentration-dependent cytotoxicity
[5]
  growth inhibition and apoptosis induction of cancer cell lines (microscopy): inhibited the growth of the normal cell lines as well as the cancer cell lines in a concentration-dependent manner and induced apoptosis

## FITC-iRGD: FITC fluorescently labeled iRGD peptide (CRGDKGPDC)
MDA-MB-231 cell line
  cell growth (MTT) in MDA-MB-231: only the FITC-conjugated Peptide 5-2C inhibited cell growth

## HERRESNYPQRP [Peptide 5]
CP2c [6]
  inhibition of CP2c-DNA binding (DIP assay): specifically inhibited the CP2c-DNA binding in a concentration-dependent manner
CP2c [7]
  inhibition of CP2c-DNA binding (DNA immunoprecipitation): inhibits CP2c-DNA binding in a concentration-dependent manner

## NYPQRP [Peptide 5-2]
CP2c [8]
  CP2c amino acids important for peptide binding: E332, R339, R341 and R347 amino acid are important for binding to Peptide 5-2
CP2c [6]
  inhibition of CP2c-DNA binding (DIP assay): specifically inhibited the binding between CP2c and DNA

## dNP2 peptide sequence (KIKKVKKKGRKGSKIKKVKKKGRKGG) linked to the N-terminal Asn residue of Peptide 5-2 [Peptide 5-2D]
[9]
  relative viability (MTT), U343 and U87MG, compared with Peptide 5-2C: inhibited the growth of the glioblastoma cell lines and efficiently induced apoptosis, similarly to Peptide 5-2C
[10]
  relative viability (MTT), U937, Jurkat, HL60, HEL, compared with Peptide 5-2C: inhibited the growth of the human embryonic kidney cancer cell line and the liver cancer cell line and efficiently induced apoptosis, similarly to Peptide 5-2C
[11]
  growth inhibition and apoptosis induction of normal control cell lines (IC50 calculation): did not substantially affect the growth inhibition of the normal control cell lines and the induction of apoptosis
  relative viability (MTT), MCF10A and BEAS2B, compared with Peptide 5-2C: did not affect the growth of the mammary epithelial cell line and the lung epithelial cell line and apoptosis, similarly to Peptide 5-2C
[12]
  relative viability (MTT), 293T and HepG2, compared with Peptide 5-2C: inhibited the growth of the human embryonic kidney cancer cell line and liver cancer cell line and efficiently induced apoptosis, similarly to Peptide 5-2C
[13]
  relative viability (MTT), breast cancer cell lines, compared with Peptide 5-2C: inhibited the growth of the breast cancer cell lines and efficiently induced apoptosis, similarly to Peptide 5-2C
[14]
  relative viability (MTT), HCT116 and HT29, compared with Peptide 5-2C: inhibited the growth of the glioblastoma cell lines and efficiently induced apoptosis, similarly to Peptide 5-2C
